The values below are quoted from earlier work in PMC6050274, “Buparlisib is a brain penetrable pan-PI3K inhibitor” (Scientific Reports, 2018).

Bounds are passed on as bounds.

For this series the following is noted: cited from earlier work.
As to `COC1(c2sc3c(N4CCOCC4)nc(-c4cnc(N)nc4)nc3c2C)COC1` [GNE-317], the brain-plasma ratio was no more than 1.
Take `Cn1c(=O)n(-c2ccc(C(C)(C)C#N)cc2)c2c3cc(-c4cnc5ccccc5c4)ccc3ncc21` [NVP-BEZ235]: the brain-plasma ratio is no more than 1.
Consider `FC(F)c1nc2ccccc2n1-c1nc(N2CCOCC2)nc(N2CCOCC2)n1` [ZSTK474], for which the brain-plasma ratio is listed as no more than 1.
